Laboratory results: US12304916B2, “Thienopyridinyl and thiazolopyridinyl compounds useful as IRAK4 inhibitors” (BRISTOL-MYERS SQUIBB COMPANY, priority 2019, dated 2025)

How the values were obtained:
[1] = system: IL-6 levels in human whole blood stimulated with a TLR2 agonist (lipoteichoic acid); experiment: IRAK4 Whole Blood Assay; assay type: cell-based; conditions: 10 μg/mL lipoteichoic acid for 5 hours, IL-6 readout
Procedure: Human whole blood containing the anti-coagulant ACD-A was plated in 384-well plate (25 μL/well) and incubated with compounds for 60 minutes at 37° C. in a 5% CO2 incubator. The blood was stimulated with a TLR2 agonist, 10 μg/mL final concentration of lipoteichoic acid (Invivogen, San Diego, CA) in 25 μL RPMI (Gibco) for 5 hours in a 5% CO2 incubator. At the end of the incubation, plates were centrifuged at 2300 rpm for 5 minutes. Supernatants were harvested and analyzed for IL-6 levels by Flow Cytometry beads assay (BD Biosciences, San Jose, CA).

IRAK4 = IRAK4 (Homo sapiens (Human), UniProt Q9NWZ3); experiment: IRAK4 Inhibition Assay; assay type: biochemical; conditions: ATP 500 μM; IRAK4 0.6 nM; 60 min at room temperature
Procedure: The assays were performed in U-bottom 384-well plates. The final assay volume was 30 μL prepared from 15 μL additions of enzyme and substrates (fluoresceinated peptide and ATP) and test compounds in assay buffer (20 mM HEPES pH 7.2, 10 mM MgCl2, 0.015% Brij 35 and 4 mM DTT). The reaction was initiated by the combination of IRAK4 with substrates and test compounds. The reaction mixture was incubated at room temperature for 60 min. and terminated by adding 45 μL of 35 mM EDTA to each sample. The reaction mixture was analyzed on the Caliper LABCHIP® 3000 (Caliper, Hopkinton, MA) by electrophoretic separation of the fluorescent substrate and phosphorylated product. Inhibition data were calculated by comparison to no enzyme control reactions for 100% inhibition and vehicle-only reactions for 0% inhibition. The final concentrations of reagents in the assays are ATP, 500 μM; FL-IPTSPITTTYFFFKKK peptide 1.5 μM; IRAK4, 0.6 nM; and DMSO, 1.6%.

Chain of IRAK4 (Q9NWZ3 whole entry, species assumed): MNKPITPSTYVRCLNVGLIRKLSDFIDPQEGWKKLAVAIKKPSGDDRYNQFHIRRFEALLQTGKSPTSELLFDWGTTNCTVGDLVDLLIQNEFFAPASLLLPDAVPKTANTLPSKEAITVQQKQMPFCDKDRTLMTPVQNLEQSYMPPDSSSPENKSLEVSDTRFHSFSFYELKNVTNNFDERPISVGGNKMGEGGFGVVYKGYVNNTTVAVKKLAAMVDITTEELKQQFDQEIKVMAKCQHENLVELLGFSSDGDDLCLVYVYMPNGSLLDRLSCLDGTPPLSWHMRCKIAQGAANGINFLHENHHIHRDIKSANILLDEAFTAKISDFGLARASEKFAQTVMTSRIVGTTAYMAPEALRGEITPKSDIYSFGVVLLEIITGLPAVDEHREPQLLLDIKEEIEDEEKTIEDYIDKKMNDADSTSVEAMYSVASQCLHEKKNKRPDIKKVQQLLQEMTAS

Structure (SMILES)	EC50 [1] [nM]	IC50 (IRAK4) [nM]
CC(C)Nc1c(C(=O)NC[C@@H](F)C(C)(C)O)cnc2sc(-c3ccnnc3)cc12 [Example 32, (R)-N-(2-fluoro-3-hydroxy-3-methylbutyl)-4-(isopropylamino)-2-(pyridazin-4-yl)thieno[2,3-b]pyridine-5-carboxamide]	> 20000	10.3
CC(C)Nc1c(C(=O)NCc2ncn[nH]2)cnc2sc(-c3cncs3)cc12 [Example 42, N-((1H-1,2,4-triazol-5-yl)methyl)-4-(isopropylamino)-2-(thiazol-5-yl)thieno[2,3-b]pyridine-5-carboxamide]	> 20000	12.2
CCOCCNC(=O)c1cnc2sc(-c3cncs3)cc2c1NC(C)C [Example 43, N-(2-ethoxyethyl)-4-(isopropylamino)-2-(thiazol-5-yl)thieno[2,3-b]pyridine-5-carboxamide]	> 20000	17.1
CC(C)Nc1c(C(=O)NCCN2CCS(=O)(=O)CC2)cnc2sc(-c3cncs3)cc12 [Example 68, N-(2-(1,1-dioxidothiomorpholino)ethyl)-4-(isopropylamino)-2-(thiazol-5-yl)thieno[2,3-b]pyridine-5-carboxamide]	> 20000	10.9
CC(C)Nc1c(C(=O)NCCc2ccncc2)cnc2sc(-c3ccc(=O)[nH]c3)cc12 [Example 71, 4-(isopropylamino)-2-(6-oxo-1,6-dihydropyridin-3-yl)-N-(2-(pyridin-4-yl)ethyl)thieno[2,3-b]pyridine-5-carboxamide]	> 20000	5.2
CC(C)Nc1c(C(=O)NCCc2cccnc2)cnc2sc(-c3ccc(=O)[nH]c3)cc12 [Example 72, 4-(isopropylamino)-2-(6-oxo-1,6-dihydropyridin-3-yl)-N-(2-(pyridin-3-yl)ethyl)thieno[2,3-b]pyridine-5-carboxamide]	> 20000	6.7
CC(C)Nc1c(-c2cn(CC3CC3)nn2)cnc2sc(-c3cncs3)cc12 [Example 78, 5-(1-(cyclopropylmethyl)-1H-1,2,3-triazol-4-yl)-N-isopropyl-2-(thiazol-5-yl)thieno[2,3-b]pyridin-4-amine]	> 20000	8.8

Next, values leading:

EC50 [1] [nM]	IC50 (IRAK4) [nM]	Structure (SMILES)
5040	12.3	CC(C)Nc1c(C(=O)N[C@H]2CC[C@H](N)CC2)cnc2sc(-c3cncs3)cc12 [Example 38, N-((1r,4r)-4-aminocyclohexyl)-4-(isopropylamino)-2-(thiazol-5-yl)thieno[2,3-b]pyridine-5-carboxamide]
660	8.2	CC(C)Nc1c(C(=O)NCCC(C)(C)O)cnc2sc(-c3cncs3)cc12 [Example 44, N-(3-hydroxy-3-methylbutyl)-4-(isopropylamino)-2-(thiazol-5-yl)thieno[2,3-b]pyridine-5-carboxamide]
5310	9.3	COC(=O)N[C@H]1CC[C@H](NC(=O)c2cnc3sc(-c4cncs4)cc3c2NC(C)C)CC1 [Example 50, methyl ((1r,4r)-4-(4-(isopropylamino)-2-(thiazol-5-yl)thieno[2,3-b]pyridine-5-carboxamido)cyclohexyl)carbamate]
3650	15.1	CC(C)(O)[C@H](F)CNC(=O)c1cnc2sc(-c3cncs3)cc2c1NC1COC1 [Example 53, (R)-N-(2-fluoro-3-hydroxy-3-methylbutyl)-4-(oxetan-3-ylamino)-2-(thiazol-5-yl)thieno[2,3-b]pyridine-5-carboxamide]
> 10000	6	CC(C)Nc1c(C(=O)NC[C@@H](F)C(C)(C)O)cnc2sc(-c3cnc(N)s3)cc12 [Example 56, (R)-2-(2-aminothiazol-5-yl)-N-(2-fluoro-3-hydroxy-3-methylbutyl)-4-(isopropylamino)thieno[2,3-b]pyridine-5-carboxamide]
3540	8.2	Cc1ncc(-c2cc3c(NC(C)C)c(C(=O)NC[C@@H](F)C(C)(C)O)cnc3s2)s1 [Example 57, (R)-N-(2-fluoro-3-hydroxy-3-methylbutyl)-4-(isopropylamino)-2-(2-methylthiazol-5-yl)thieno[2,3-b]pyridine-5-carboxamide]
190	3.8	CC(C)Nc1c(C(=O)NC[C@@H](F)C(C)(C)O)cnc2sc(-c3ccc(=O)[nH]c3)cc12 [Example 59, (R)-N-(2-fluoro-3-hydroxy-3-methylbutyl)-4-(isopropylamino)-2-(6-oxo-1,6-dihydropyridin-3-yl)thieno[2,3-b]pyridine-5-carboxamide]
> 10000	10.8	CC(O)CCNC(=O)c1cnc2sc(-c3cncs3)cc2c1NC(C)C (stereo not drawn) [Example 60, N-(3-hydroxybutyl)-4-(isopropylamino)-2-(thiazol-5-yl)thieno[2,3-b]pyridine-5-carboxamide]
2340	5.4	CC(C)Nc1c(C(=O)NCCC2(O)CC(F)(F)C2)cnc2sc(-c3cncs3)cc12 [Example 63, N-(2-(3,3-difluoro-1-hydroxycyclobutyl)ethyl)-4-(isopropylamino)-2-(thiazol-5-yl)thieno[2,3-b]pyridine-5-carboxamide]
> 10000	2.3	CC(C)Nc1c(-c2cn(CCCO)nn2)cnc2sc(-c3cncs3)cc12 [Example 79, 3-(4-(4-(isopropylamino)-2-(thiazol-5-yl)thieno[2,3-b]pyridin-5-yl)-1H-1,2,3-triazol-1-yl)propan-1-ol]
420	5.2	CC(C)Nc1c(-c2cn(CCCO)nn2)cnc2sc(-c3ccc(=O)[nH]c3)cc12 [Example 80, 5-(5-(1-(3-hydroxypropyl)-1H-1,2,3-triazol-4-yl)-4-(isopropylamino)thieno[2,3-b]pyridin-2-yl) pyridin-2(1H)-one]
